According to patent US20100316713A1, “PHARMACEUTICAL COMPOSITION” (priority 2007, published 2010):

Assay: stability of the drug substance in water
Assay type: physicochemical

Which water sensitivity (may convert to free base hydrate, solvate or amorphous form in the presence of ethanol and/or water) does the source give for CN1CCN(c2nc(C3=C(c4c[nH]c5ccccc45)C(=O)NC3=O)c3ccccc3n2)CC1 [3-(1.H.-indol-3-yl)-4-[2-(4-methyl-piperazin-1-yl)-quinazolin-4-yl]-pyrrole-2,5-dione] here?
The water sensitivity was “water sensitive”.

What about the degradation in water (water, renders aqueous granulation difficult) of the same compound?
Its degradation in water is “high degradation”.
